Holding throughout (format): biochemical
Assay [1] concerns the target Glycogen Synthase Kinase 3 (GSK-3) (Homo sapiens, UniProt P49841). Kind of assay: GSK-3 inhibition assay (standard coupled enzyme assay). The conditions noted are these: 60 nM GSK-3, 10 μM ATP; read-out: GSK-3 Inhibitory Activity (Ki rating A-C). Put shortly:
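Pyruvate kinase/lactate dehydrogenase-coupled assay with 60 nM GSK-3 and 300 μM HSSPHQp-SEDEEE peptide in HEPES pH 7.5; compound preincubated 5 min at 30 °C, reaction started with 10 μM ATP. NADH absorbance at 340 nm tracked over 5 min; IC50 from rates versus inhibitor concentration.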

The target of another assay is T1, activated JNK3 (Homo sapiens, UniProt P53779).
T1 construct: One such construct encodes amino acid residues Ser40-Glu402 of JNK3α1 and is preceded by Met and Gly residues; Met-Gly (initiator methionine and added glycine) (N); made in house; host or cells: E. coli BL21 (DE3)
T1 sequence (P53779 40-402): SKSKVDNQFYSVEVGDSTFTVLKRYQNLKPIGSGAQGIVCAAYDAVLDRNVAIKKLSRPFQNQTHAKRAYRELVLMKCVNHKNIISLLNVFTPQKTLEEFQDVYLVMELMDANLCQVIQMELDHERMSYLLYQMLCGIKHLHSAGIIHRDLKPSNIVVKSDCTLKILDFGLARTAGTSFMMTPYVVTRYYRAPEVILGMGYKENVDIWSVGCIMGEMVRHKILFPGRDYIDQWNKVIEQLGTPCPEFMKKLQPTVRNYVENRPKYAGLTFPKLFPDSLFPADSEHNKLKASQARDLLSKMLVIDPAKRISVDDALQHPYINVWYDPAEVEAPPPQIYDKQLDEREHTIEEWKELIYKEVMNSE
Kind of assay: JNK inhibition assay (spectrophotometric coupled-enzyme assay). Particulars: 10 nM activated JNK3, 10 μM ATP; read-out: Activity in the JNK3 Inhibition Assay (Ki rating A-C). Put shortly:
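Activated (doubly phosphorylated, MKK7(DD)-activated) human JNK3, 10 nM, preincubated 10 min at 30 °C with inhibitor in 0.1 M HEPES pH 7.5, 10 mM MgCl2, 200 μM EGF receptor peptide, PK/LDH-coupled. Started with 10 μM ATP; A340 decrease followed at 30 °C. Ki from competitive inhibition model fit.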

In assay [2] the target is T2, full length recombinant human Src kinase (Homo sapiens, UniProt P12931).
T2 construct: full length recombinant human Src kinase; purchased Upstate Biotechnology 14-117; host or cells: baculo viral cells (baculovirus expression)
T2 sequence (P12931 whole entry): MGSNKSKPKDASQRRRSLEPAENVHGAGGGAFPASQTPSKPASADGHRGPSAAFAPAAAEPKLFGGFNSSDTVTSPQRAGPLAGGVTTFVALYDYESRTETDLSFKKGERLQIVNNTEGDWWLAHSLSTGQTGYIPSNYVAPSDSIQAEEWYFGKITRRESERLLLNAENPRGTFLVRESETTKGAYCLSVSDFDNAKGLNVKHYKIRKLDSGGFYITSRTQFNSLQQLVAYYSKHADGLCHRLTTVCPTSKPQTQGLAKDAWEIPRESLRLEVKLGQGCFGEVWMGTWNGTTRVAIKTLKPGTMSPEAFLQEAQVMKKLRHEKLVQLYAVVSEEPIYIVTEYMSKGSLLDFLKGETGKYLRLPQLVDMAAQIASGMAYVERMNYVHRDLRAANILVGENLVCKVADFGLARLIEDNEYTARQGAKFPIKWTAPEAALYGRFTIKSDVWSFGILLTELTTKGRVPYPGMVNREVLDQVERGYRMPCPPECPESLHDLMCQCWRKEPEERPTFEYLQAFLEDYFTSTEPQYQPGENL
Kind of assay: Src inhibition assay (33P incorporation into poly Glu-Tyr). As for the experimental part: The compounds were assayed as inhibitors of full length recombinant human Src kinase (from Upstate Biotechnology, cat. no. 14-117) expressed and purified from baculo viral cells. Src kinase activity was monitored by following the incorporation of ^33P from ATP into the tyrosine of a random poly Glu-Tyr polymer substrate of composition, Glu:Tyr=4:1 (Sigma, cat. no. P-0275). The following were the final concentrations of the assay components: 0.05 M HEPES, pH 7.6, 10 mM MgCl2, 2 mM DTT, 0.25 mg/ml BSA, 10 μM ATP (1-2 μCi ^33P-ATP per reaction), 5 mg/ml poly Glu-Tyr, and 1-2 units of recombinant human Src kinase. In a typical assay, all the reaction components with the exception of ATP were pre-mixed and aliquoted into assay plate wells. […] The assay plate was incubated at 30° C. for 10 min before initiating the reaction with ^33P-ATP. After 20 min of reaction, the reactions were quenched with 150 μl of 10% trichloroacetic acid (TCA) containing 20 mM Na3PO4. The quenched samples were then transferred to a 96-well filter plate (Whatman, UNI-Filter GF/F Glass Fiber Filter, cat no. 7700-3310) installed on a filter plate vacuum manifold. Filter plates were washed four times with 10% TCA containing 20 mM Na3PO4 and then 4 times with methanol. 200 μl of scintillation fluid was then added to each well. The plates were sealed and the amount of radioactivity associated with the filters was quantified on a TopCount scintillation counter.

Drawing on US6949544B2, “Inhibitors of c-Jun N-terminal kinases (JNK) and other protein kinases” (Vertex Pharmaceuticals Incorporated, priority 2001, dated 2005), this text covers Ki and inhibition for 2 molecules.

Glycogen Synthase Kinase 3 (GSK-3), sequence (P49841 whole entry): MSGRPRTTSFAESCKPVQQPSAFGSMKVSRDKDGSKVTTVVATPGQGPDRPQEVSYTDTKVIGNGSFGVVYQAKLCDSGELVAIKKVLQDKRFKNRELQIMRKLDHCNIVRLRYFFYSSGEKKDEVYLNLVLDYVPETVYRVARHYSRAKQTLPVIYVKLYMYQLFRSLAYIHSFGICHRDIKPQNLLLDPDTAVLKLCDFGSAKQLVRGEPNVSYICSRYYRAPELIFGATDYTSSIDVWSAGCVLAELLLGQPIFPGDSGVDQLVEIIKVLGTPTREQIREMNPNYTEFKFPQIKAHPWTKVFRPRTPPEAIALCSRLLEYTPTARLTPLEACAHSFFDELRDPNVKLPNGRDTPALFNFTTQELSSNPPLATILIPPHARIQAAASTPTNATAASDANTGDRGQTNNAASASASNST

`COc1cc(-c2ccnc(Nc3ccc(N)cc3)n2)cc(OC)c1OC` [Compound I-34]: the Ki in assay [1] is 100 to 1000 nM; on activated JNK3, below 100 nM; in assay [2] (10 μM ATP, read-out: Activity in the SRC Inhibition Assay (Ki rating A-C)), above 1000 nM.

In the case of `COc1cc(-c2ccnc(Nc3cccc(N)c3)n2)cc(OC)c1OC` [Compound I-57], the inhibitory constant (Ki) in assay [1] was 100 to 1000 nM; on activated JNK3 it was below 100 nM. In assay [2] (at a 2 μM inhibitor concentration, read-out: Activity in the SRC Inhibition Assay (percent inhibition rating D-F)), the inhibition at 2 µM lay in the range of 24 to 66%.

What is called Ki is the equilibrium dissociation constant of an inhibitor or competing ligand from its target. As a reminder, the inhibition is the percentage by which the read-out fell short of the control.
